What was measured:
Assay in all cases: competitive isoTOP-ABPP
Type in all cases: binding
[1] = molecular target: T1, SPAST Spastin (Homo sapiens, UniProt Q9UBP0); conditions: 50 uM, 231 sol, in vitro; for R value (DMSO/fragment) for probe 1 labeling: Q9UBP0_K180
T1 construct: endogenous in cells; host or cells: MDA-MB-231 lysate
T1 sequence (Q9UBP0 1-616): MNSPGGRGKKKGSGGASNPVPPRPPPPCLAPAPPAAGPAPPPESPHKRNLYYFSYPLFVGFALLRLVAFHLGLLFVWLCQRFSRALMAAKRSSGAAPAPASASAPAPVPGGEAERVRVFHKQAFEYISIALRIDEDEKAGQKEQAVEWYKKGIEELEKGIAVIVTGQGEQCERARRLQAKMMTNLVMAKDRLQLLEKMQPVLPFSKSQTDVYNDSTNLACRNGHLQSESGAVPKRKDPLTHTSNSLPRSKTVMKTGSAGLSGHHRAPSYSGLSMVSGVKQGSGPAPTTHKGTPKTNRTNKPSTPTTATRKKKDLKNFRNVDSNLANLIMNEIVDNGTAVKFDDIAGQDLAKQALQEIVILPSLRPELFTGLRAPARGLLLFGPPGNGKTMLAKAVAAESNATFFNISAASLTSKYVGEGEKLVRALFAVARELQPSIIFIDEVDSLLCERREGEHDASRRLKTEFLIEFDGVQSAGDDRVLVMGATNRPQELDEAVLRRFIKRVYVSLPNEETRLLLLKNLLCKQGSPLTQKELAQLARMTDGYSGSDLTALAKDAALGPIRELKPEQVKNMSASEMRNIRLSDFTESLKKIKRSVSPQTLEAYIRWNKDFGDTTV
Procedure, shortened: (§1)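 Cell lysate (0.5 ml) was pre-treated with fragment, 50 μM for activated esters or 100 μM for guanidinylating agents, versus DMSO, then labeled 1 h at ambient temperature with 0.1 mM STP-alkyne. Light/heavy TEV tags attached by CuAAC; R = DMSO/compound MS1 peak-area ratio, median per lysine.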

[2] = molecular target: T2, LRRC20 Leucine-rich repeat-containing protein 20 (Homo sapiens, UniProt Q8TCA0); conditions: 50 uM, 231 sol, in vitro; for R value (DMSO/fragment) for probe 1 labeling: Q8TCA0_K43
T2 construct: isoTOP-ABPP experiments performed in cell lysates (in vitro); endogenous in cells; host or cells: soluble proteome of human cancer cell lines (MDA-MB-231; Ramos and Jurkat also prepared)
T2 sequence (Q8TCA0 1-184): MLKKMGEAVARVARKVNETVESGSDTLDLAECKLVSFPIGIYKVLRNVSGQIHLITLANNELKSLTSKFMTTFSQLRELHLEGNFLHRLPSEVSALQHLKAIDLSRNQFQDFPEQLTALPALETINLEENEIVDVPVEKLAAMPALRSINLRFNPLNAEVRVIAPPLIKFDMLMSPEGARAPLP
Procedure, shortened: as §1

[3] = molecular target: T3, DNMT1 DNA (cytosine-5)-methyltransferase 1 (Homo sapiens, UniProt P26358); conditions: 50 uM, 231 sol, in vitro; for R value (DMSO/fragment) for probe 1 labeling: P26358_K45
T3 construct: isoTOP-ABPP experiments performed in cell lysates (in vitro); endogenous in cells; host or cells: soluble proteome of human cancer cell lines (MDA-MB-231; Ramos and Jurkat also prepared)
Procedure, shortened: as §1

[4] = molecular target: T4, SLC25A5 ADP/ATP translocase 2 (Homo sapiens, UniProt P05141); conditions: 50 uM, in vitro
T4 construct: isoTOP-ABPP experiments performed in cell lysates (in vitro); endogenous in cells; host or cells: MDA-MB-231 soluble lysate
T4 sequence (P05141 1-298): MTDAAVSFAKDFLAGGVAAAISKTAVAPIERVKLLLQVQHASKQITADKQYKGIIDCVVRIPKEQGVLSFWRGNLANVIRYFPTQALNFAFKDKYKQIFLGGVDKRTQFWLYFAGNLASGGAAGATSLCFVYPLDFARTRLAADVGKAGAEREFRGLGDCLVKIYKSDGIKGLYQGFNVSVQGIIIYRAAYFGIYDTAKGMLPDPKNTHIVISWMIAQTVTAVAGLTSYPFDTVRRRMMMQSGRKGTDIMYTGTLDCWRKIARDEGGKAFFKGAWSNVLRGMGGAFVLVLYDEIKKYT
Procedure, shortened: as §1

T3 sequence (P26358 whole entry, the tested form may be a part): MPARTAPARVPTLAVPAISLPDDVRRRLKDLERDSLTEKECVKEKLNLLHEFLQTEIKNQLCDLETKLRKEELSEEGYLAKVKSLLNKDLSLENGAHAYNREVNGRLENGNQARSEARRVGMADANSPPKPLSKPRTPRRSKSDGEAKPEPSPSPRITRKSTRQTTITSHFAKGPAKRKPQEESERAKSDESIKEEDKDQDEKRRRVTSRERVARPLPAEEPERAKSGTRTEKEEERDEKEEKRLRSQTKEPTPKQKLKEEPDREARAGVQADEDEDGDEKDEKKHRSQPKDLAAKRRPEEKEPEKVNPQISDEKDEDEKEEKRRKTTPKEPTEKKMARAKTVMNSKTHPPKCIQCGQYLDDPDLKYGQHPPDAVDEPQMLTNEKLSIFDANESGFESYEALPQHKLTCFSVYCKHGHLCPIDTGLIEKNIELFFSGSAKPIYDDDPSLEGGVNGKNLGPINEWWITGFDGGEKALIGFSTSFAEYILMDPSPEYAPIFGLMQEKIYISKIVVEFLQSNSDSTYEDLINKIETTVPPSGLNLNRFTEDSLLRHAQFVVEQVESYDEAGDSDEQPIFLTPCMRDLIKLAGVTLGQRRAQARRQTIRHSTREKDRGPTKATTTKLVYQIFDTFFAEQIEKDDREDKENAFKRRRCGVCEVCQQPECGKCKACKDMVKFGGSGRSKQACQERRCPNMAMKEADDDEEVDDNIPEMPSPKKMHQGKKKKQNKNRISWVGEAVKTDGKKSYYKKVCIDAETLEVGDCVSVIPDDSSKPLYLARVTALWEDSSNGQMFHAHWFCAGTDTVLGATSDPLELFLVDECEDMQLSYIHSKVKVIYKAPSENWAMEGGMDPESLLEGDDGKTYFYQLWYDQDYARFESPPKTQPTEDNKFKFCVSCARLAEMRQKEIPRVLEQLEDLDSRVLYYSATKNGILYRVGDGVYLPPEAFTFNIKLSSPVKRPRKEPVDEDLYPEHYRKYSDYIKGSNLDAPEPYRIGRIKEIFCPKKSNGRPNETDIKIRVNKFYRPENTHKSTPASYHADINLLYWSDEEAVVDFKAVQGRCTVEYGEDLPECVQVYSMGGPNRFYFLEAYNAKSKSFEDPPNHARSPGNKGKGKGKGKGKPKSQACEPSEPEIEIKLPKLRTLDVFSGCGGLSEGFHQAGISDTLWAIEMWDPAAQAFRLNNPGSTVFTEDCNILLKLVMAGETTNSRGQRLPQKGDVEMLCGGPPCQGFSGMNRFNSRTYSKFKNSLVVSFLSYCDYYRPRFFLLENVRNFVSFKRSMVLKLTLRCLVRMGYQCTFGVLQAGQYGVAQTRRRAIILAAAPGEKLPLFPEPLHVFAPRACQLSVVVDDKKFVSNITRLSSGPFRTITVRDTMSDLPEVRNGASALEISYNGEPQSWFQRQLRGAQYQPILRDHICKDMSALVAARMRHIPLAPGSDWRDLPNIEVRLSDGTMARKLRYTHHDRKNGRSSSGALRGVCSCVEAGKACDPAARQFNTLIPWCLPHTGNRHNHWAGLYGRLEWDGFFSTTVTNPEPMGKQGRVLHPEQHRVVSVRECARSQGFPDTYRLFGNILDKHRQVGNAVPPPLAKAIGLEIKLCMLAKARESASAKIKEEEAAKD

Compound	R value (DMSO/fragment) for probe 1 labeling [1]	R value (DMSO/fragment) for probe 1 labeling [2]	isoTOP-ABPP reactivity ratio at lysine Q9UBP0_K180 [1]	further results
O=C(CCc1cn(-c2ccccc2)nc1-c1ccccc1)Oc1c(F)c(F)c(F)c(F)c1F [fragment 19, Pentafluorophenyl 3-(1,3-diphenyl-1H-pyrazol-4-yl)propanoate]	1.3	1.1		
O=C(Oc1c(F)c(F)c(F)c(F)c1F)C(c1ccccc1)c1ccccc1 [fragment 20, Pentafluorophenyl 2,2-diphenylacetate]	1.2	0.7		R value (DMSO/fragment) for probe 1 labeling [3]: 7.3
O=C(Oc1c(F)c(F)c(F)c(F)c1F)c1cc(C(F)(F)F)cc(C(F)(F)F)c1 [fragment 21, Pentafluorophenyl 3,5-bis(trifluoromethyl)benzoate]	1.8	1.0		R value (DMSO/fragment) for probe 1 labeling [3]: 1.4; R value (DMSO/fragment) for probe 1 labeling ([4]; P05141_K23, 231 sol): 1.7
Cn1cc(CC(=O)Oc2c(F)c(F)c(F)c(F)c2F)c2ccccc21 [fragment 22, Pentafluorophenyl 2-(1-methyl-1H-indol-3-yl)acetate]	1.0	0.9		R value (DMSO/fragment) for probe 1 labeling [3]: 0.9
O=C(Oc1c(F)c(F)c(F)c(F)c1F)C1CCN(C(=O)OCc2ccccc2)CC1 [fragment 24, 1-Benzyl 4-(pentafluorophenyl) piperidine-1,4-dicarboxylate]			1.1	
O=C(Oc1c(F)c(F)c(F)c(F)c1F)c1ccc2ccccc2n1 [fragment 25, Pentafluorophenyl quinoline-2-carboxylate]			1.2	isoTOP-ABPP reactivity ratio at lysine P26358_K45 [3]: 0.9
O=C(CCc1coc2cc(F)ccc2c1=O)Oc1c(F)c(F)c(F)c(F)c1F [fragment 26, Pentafluorophenyl 3-(7-fluoro-4-oxo-4H-chromen-3-yl)propanoate]				isoTOP-ABPP reactivity ratio at lysine Q8TCA0_K43 [2]: 0.8
O=C(CN1C(=O)c2ccccc2C1=O)Oc1c(F)c(F)c(F)c(F)c1F [fragment 27, Pentafluorophenyl 2-(1,3-dioxoisoindolin-2-yl)acetate]			2.1	
CCn1cc(C(=O)Oc2c(F)c(F)c(F)c(F)c2F)c(=O)c2ccc(C)nc21 [fragment 28, Pentafluorophenyl 1-ethyl-7-methyl-4-oxo-1,4-dihydro-1,8-naphthyridine-3-carboxylate]			1.0	isoTOP-ABPP reactivity ratio at lysine P05141_K23 ([4]; 231 sol): 1.0
O=C(Oc1ccc([N+](=O)[O-])cc1[N+](=O)[O-])C(c1ccccc1)c1ccccc1 [fragment 30, 2,4-Dinitrophenyl 2,2-diphenylacetate]				isoTOP-ABPP reactivity ratio at lysine Q8TCA0_K43 [2]: 1.5; isoTOP-ABPP reactivity ratio at lysine P05141_K23 ([4]; 231 sol): 2.2
O=C(Oc1ccc([N+](=O)[O-])cc1[N+](=O)[O-])c1cc(C(F)(F)F)cc(C(F)(F)F)c1 [fragment 31, 2,4-Dinitrophenyl 3,5-bis(trifluoromethyl)benzoate]			1.1	isoTOP-ABPP reactivity ratio at lysine P05141_K23 ([4]; 231 sol): 1.5
COc1cc(CCC(=O)Oc2ccc([N+](=O)[O-])cc2[N+](=O)[O-])cc(OC)c1OC [fragment 33, 2,4-Dinitrophenyl 3-(3,4,5-trimethoxyphenyl)propanoate]			0.7	isoTOP-ABPP reactivity ratio at lysine P26358_K45 [3]: 0.9
O=C(Oc1ccc([N+](=O)[O-])cc1[N+](=O)[O-])C1CCN(C(=O)OCc2ccccc2)CC1 [fragment 34, 1-Benzyl 4-(2,4-dinitrophenyl) piperidine-1,4-dicarboxylate]				isoTOP-ABPP ratio (R) at liganded lysine P05141_K23 ([4]; sol, 231): 1.1

Source: patent US20210255193A1, “LYSINE REACTIVE PROBES AND USES THEREOF” (The Scripps Research Institute, priority 2017, published 2021)
